We go through 2 compounds from patent US20170027973A1, “MODULARION OF INVARIANT NATURAL KILLER T CELLS IN THE TREATMENT OF SEPSIS” (LONDON HEALTH SCIENCES CENTRE RESEARCH INC., priority 2014, published 2017).

Format in all cases: in vivo, mouse
One assay concerns inflammatory cytokines. In words: Multiplex cytokine quantification in sera and spleens of septic B6 mice. How it is done: FIG. 5: Cytokine levels in the sera and spleens of septic B6 mice. […] Concentrations of iNKT cell-specific cytokines are shown from sera (b) and spleen homogenates (c) of septic mice treated with vehicle, OCH, or KRN7000 (n=4-8 per group). Concentrations of cytokines are shown in pg/mL. *p<0.05, **p<0.01, ***p<0.001 by one-way ANOVA with post-hoc Tukey's multiple comparison test. Data are representative of at least three independent experiments.
Serum was analyzed by bead-based multiplex assay for 32 different cytokines, chemokines, and growth factors (Eve Technologies, Calgary, Alberta, Canada) including granulocyte-colony stimulating factor (G-CSF), granulocyte macrophage-colony stimulating factor (GM-CSF), interferon-gamma (IFN-γ), interleukin (IL)-1α, IL-1β, IL-2, IL-3, IL-4, IL-5, IL-6, IL-7, IL-9, IL-10, IL-12 (p40), IL-12 (p70), IL-13, IL-15, IL-17A, IP-10, keratinocyte chemo-attractant (KC), leukemia inhibitory factor (LIF), lipopolysaccharide-induced CXC chemokine (LIX), monocyte chemotactic protein (MCP)-1, monocyte-colony stimulating factor (M-CSF), monokine induced by gamma interferon (MIG), macrophage inflammatory protein (MIP)-1α, MIP-1β, MIP-2, Regulated on Activation, Normal T cell Expressed and Secreted (RANTES), tumour necrosis factor (TNF)-α, and vascular endothelial growth factor (VEGF). Multiplex data was visualized using a cytokine heat map that was generated using Matrix2png (33).

In another assay the test system is iNKT cells. In words: Flow cytometric detection of iNKT and T cells in spleen and liver of septic B6 mice. Conditions: 24 hours. As for the experimental part: FIG. 10: Effect of glycolipid agonists on cytokine expression in naïve B6 mice, and on iNKT cells in septic B6 mice. (a) Naïve B6 mice were injected i.p. with 4 μg OCH or KRN7000 or C20:2, and bled at 2, 12, and 24 hours post-injection. Serum samples were assayed for IL-4 and IFN-γ by enzyme-linked immunosorbent assay (ELISA). […] Vehicle-treated mice had cytokine levels below limits of detection. (b) B6 mice were given an intraperitoneal injection of fecal slurry (500 μL of a 90 mg/mL solution) to induce IAS and concomitantly treated with 4 μg of vehicle, OCH, or KRN7000. After 24 hours, mice were sacrificed, and cell suspensions from the liver and spleen were stained for the flow cytometric detection of CD1d tetramer+ TCRβ+iNKT cells.
To obtain hepatic lymphoid mononuclear cells (MNCs), mice were euthanized, and livers were flushed with sterile PBS before they were harvested and pressed through a 40-μm nylon mesh. The resulting homogenate was washed in cold PBS, resuspended in a 33.75% Percoll PLUS solution (GE Healthcare Bio-Sciences) and spun at 700×g for 12 min at room temperature. The pelleted cells were then treated with ACK lysis buffer to remove erythrocytes and washed in cold PBS prior to staining. To obtain omental lymphoid MNCs, the spleen, pancreas, and omentum were removed en-bloc and suspended in ice-cold PBS. The omenta floated above the spleen-pancreas complex and were removed and processed similar to the liver. Spleens were processed with a tissue homogenizer, and the resulting homogenate was washed in cold PBS. The pelleted cells were treated with ACK lysis buffer for 4 minutes to remove erythrocytes, and washed in cold PBS prior to staining.
Mouse hepatic, splenic, and omental cells (1×106), and human PBMCs (1×106) were washed with cold FACS buffer [PBS+2% fetal bovine serum (FBS)+0.1% sodium azide] and incubated with 5 μg/ml anti-mouse CD16/CD32 mAb (clone 2•4G2, Fc-block, eBiosciences) for 20 min on ice before staining with fluorescent monoclonal antibodies (mAbs) diluted in FACS buffer at 4° C. for 30-40 min. […]
Background: A flow cytometer gives signals particle by particle.

In assay [1] the test system is splenic T, B, NK cells and macrophages. In words: Annexin V / 7-AAD flow cytometry of apoptotic splenic cell populations in septic B6 mice. Conditions: for NK cell apoptosis / frequency of apoptotic macrophages: spleen; for frequency of apoptotic macrophages: compared to vehicle-treated mice. An excerpt:
FIG. 7: Analysis of apoptotic cell populations in the spleens of septic B6 mice. Splenocytes from sham and septic B6 mice treated with OCH, KRN7000, or vehicle were stained for T, B, and Natural Killer (NK) cells, and macrophages, and further stained for Annexin V (a marker for early apoptosis) and 7-AAD viability dye. Early and late apoptotic cells (Annexin V+7AAD- and Annexin V+7AAD+ cells respectively) were quantified and compared between treatments. […] (n=3-6 mice per group). *p<0.05, **p<0.01, ***p<0.001 by one-way ANOVA with post-hoc Tukey's multiple comparison test. Data are representative of 3 independent experiments.
FIG. 8: Gating strategy to identify the percentage of apoptotic and necrotic immune cell populations. CD3-APC is shown as an example, but the same strategy was used for macrophages (F480-APC), B cells (B220-APC), and Natural Killer (NK) cells (NK1.1-PE).
Mouse hepatic, splenic, and omental cells (1×106), and human PBMCs (1×106) were washed with cold FACS buffer [PBS+2% fetal bovine serum (FBS)+0.1% sodium azide] and incubated with 5 μg/ml anti-mouse CD16/CD32 mAb (clone 2•4G2, Fc-block, eBiosciences) for 20 min on ice before staining with fluorescent monoclonal antibodies (mAbs) diluted in FACS buffer at 4° C. for 30-40 min. Cells were then washed and flow cytometry was performed using FACSCanto II (BD) with FlowJo software (Treestar).

[2] abbreviates: KRN7000 compared to OCH-treated group.
The mark [3] stands for this setting: compared to vehicle- and KRN7000-treated mice.

Consider `CCCCCCCCCCCCCCCCCCCCCCCCCC(=O)N[C@@H](CO[C@H]1O[C@H](CO)[C@H](O)[C@H](O)[C@H]1O)[C@H](O)[C@H](O)CCCCCCCCCCCCCC` [KRN7000, reference compound], for which, in the assay with inflammatory cytokines (setting [2]), the “spleen IFN-γ” value is recorded as “significantly elevated”, the “spleen IL-3” value is reported as “significantly elevated”, the “spleen IL-4” value is on record as “significantly elevated” and the “spleen IL-17” value was “significantly elevated”. Moreover, the “spleen TNF-α” value with inflammatory cytokines (setting [2]) is listed as “significantly elevated”. Further, in the assay with iNKT cells, the “detection of iNKT cells versus OCH treatment” value is listed as “significantly lower” and the “detection of iNKT cells versus vehicle” value is listed as “significantly reduced”. In addition, in assay [1], the NK cell apoptosis entry is “trend toward reduced apoptosis” and the “frequency of apoptotic macrophages” value is recorded as “reduced the frequency of apoptosis significantly”.
As for `CCCCCCCCCCCCCCCCCCCCCCCC(=O)N[C@@H](COC1OC(CO)C(O)C(O)C1O)[C@H](O)[C@H](O)CCCCC` (stereo partly shown) [OCH], the “serum mean concentration of IL-17” value with inflammatory cytokines (OCH compared to KRN7000-treated) is listed as “significantly lower”. The “serum concentration of IL-13” value in the assay with inflammatory cytokines (compared to KRN7000-treated and vehicle-treated) is recorded as “higher”. The “detection of iNKT cells versus vehicle” value with iNKT cells is on record as “significantly reduced”. In assay [1] (setting [3]), the “apoptosis of splenic B cells” value is given as “significantly reduced” and the “apoptosis of splenic T cells” value is recorded as “significantly reduced”. In assay [1], the NK cell apoptosis entry is “appeared to be reduced” and the “frequency of apoptotic macrophages” value is on record as “reduced the frequency of apoptosis significantly”.
